Reference: patent US20220226313A1, “COMBINATION THERAPIES THAT INCLUDE AN AGENT THAT PROMOTES GLUCOSE OXIDATION AND AN INHIBITOR OF PYRUVATE DEHYDROGENASE KINASE” (IMBRIA PHARMACEUTICALS, INC., priority 2019, published 2022)
Several values for one entry are separate records, joined by “and”; a condition that tells them apart may be missing. Equal values may be shown once.

Experiments:
[1] = stability of CV-8972 in aqueous solution at different concentrations and pH; assay type: physicochemical
Protocol: The stability of CV-8972 was analyzed. Aqueous samples containing CV-8972 at different concentrations and pH were incubated for various periods and analyzed.
Form A of CV-8972 was analyzed for stability in aqueous solution. Aqueous samples containing CV-8972 at different concentrations and pH were incubated for various periods and analyzed.

[2] = recrystallization to monohydrate of CV-8972, water content by KF; assay type: physicochemical; settings: recrystallized monohydrate of CV-8972, MeOH:MEK with water; theoretical 3.32%
Text: The product was converted to the desired polymorph by recrystallization. The percentage of water and the ratio of methanol:methyl ethyl ketone (MEK) were varied in different batches using 2.5 g of product.
In batch MBA 25, 5% water w/r/t total volume of solvent (23 volumes) containing 30% methano1:70% MEK was used for precipitation. The yield was 67% of monohydrate of CV-8972.
In batch MBA 26, 1.33% water w/r/t total volume of solvent (30 volumes) containing 20% methano1:80% MEK was used for precipitation. […] Water content was determined by KF to be 4.0%.
In batch MBA 27, 3% water w/r/t total volume of solvent (32 volumes) containing 22% methano1:78% MEK was used for precipitation. The yield was 87.22% of monohydrate of CV-8972.
In other batches, the ratio and total volume of solvent were held constant at 20% methano1:80% MEK and 30 volumes in batches using 2.5 g of product, and only the percentage of water was varied.
In batch MBA 29, 1.0 equivalent of water was added. Material was isolated and dried under vacuum at 40° C. for 24 hours. Water content was determined by KF to be 0.89%, showing that the monohydrate form was not forming stoichiometrically.
In batch MBA 30, 3% water was added. Material was isolated and dried under vacuum at 40° C. for 24 hours.
In batch MBA 31, 5% water was added. Material was isolated and dried under vacuum at 40° C. for 24 hours. Water content was determined by KF to be 3.30%, showing that monohydrate is forming with addition of excess water.

[3] = tested on: isolated hearts after ischemia-reperfusion; test: ischemia-reperfusion (IR), cardiac function (LVDP); assay type: in vivo, mice; settings: group mean
Protocol: At 20 minutes, ischemia was induced, and coronary flow was analyzed. At 50 minutes, reperfusion was initiated to restore blood flow. At 170 minutes, coronary flow and cardiac function was analyzed, and then the hearts were preserved, sectioned, and infarct size was measured by triphenyltetrazolium chloride (TTC) staining. […] Blue bars indicate LVDP at 20 minutes, and orange bars indicate LVDP at 170 minutes.

[4] = tested on: isolated hearts after ischemia-reperfusion; test: ischemia-reperfusion (IR), infarct size by TTC staining; assay type: in vivo, mice; settings: composite image data, mean of the group's hearts
Protocol: FIG. 38 is a schematic of the ischemia-reperfusion (IR) method used to analyze the effects of selected compositions on coronary flow, cardiac function, and infarct size. […] At 20 minutes, ischemia was induced, and coronary flow was analyzed. At 50 minutes, reperfusion was initiated to restore blood flow. At 170 minutes, coronary flow and cardiac function was analyzed, and then the hearts were preserved, sectioned, and infarct size was measured by triphenyltetrazolium chloride (TTC) staining. […] FIG. 42 is graph of infarct size after IR.

[5] = tested on: isolated hearts after ischemia-reperfusion; test: ischemia-reperfusion (IR), coronary flow; assay type: in vivo, mice; settings: ratio of flow at 170 minutes to flow at 20 minutes
Protocol: FIG. 38 is a schematic of the ischemia-reperfusion (IR) method used to analyze the effects of selected compositions on coronary flow, cardiac function, and infarct size. […] At 20 minutes, ischemia was induced, and coronary flow was analyzed. At 50 minutes, reperfusion was initiated to restore blood flow. At 170 minutes, coronary flow and cardiac function was analyzed, and then the hearts were preserved, sectioned, and infarct size was measured by triphenyltetrazolium chloride (TTC) staining. FIG. 39 is a graph of coronary flow of after IR.

Structure (SMILES): COc1ccc(CN2CCN(CCOC(=O)c3cccnc3)CC2)c(OC)c1OC.Cl.Cl.Cl.O [Sample 276-MBA-172]
- Retention Time 5.6 (purity of CV-8972) ([1]; 2 mg/mL pH 6, 0 hrs): 98.01
- Retention Time 5.6 (purity of CV-8972) ([1]; 2 mg/mL pH 7, 0 hrs): 97.53
- Retention Time 5.6 (purity of CV-8972) ([1]; 10 mg/mL pH 6, 0 hrs): 95.24
- Retention Time 5.6 (purity of CV-8972) ([1]; 10 mg/mL pH 7, 0 hrs): 92.85

Structure (SMILES): COc1ccc(CN2CCN(CCOC(=O)c3cccnc3)CC2)c(OC)c1OC.Cl.Cl.Cl.O [Sample 289-MBA-25]
- KF result (% of water) [2]: 3.46%

Structure (SMILES): COc1ccc(CN2CCN(CCOC(=O)c3cccnc3)CC2)c(OC)c1OC.Cl.Cl.Cl.O [Sample 289-MBA-26]
- KF result (% of water) [2]: 4.00%
- KF result (Sample after drying at 40° C. for 24 hours) [2]: 3.75%

Structure (SMILES): COc1ccc(CN2CCN(CCOC(=O)c3cccnc3)CC2)c(OC)c1OC.Cl.Cl.Cl.O [Sample 289-MBA-27]
- KF result (% of water) [2]: 3.93%
- KF result (Sample after drying at 40° C. for 24 hours) [2]: 3.54%

Structure (SMILES): COc1ccc(CN2CCN(CCOC(=O)c3cccnc3)CC2)c(OC)c1OC.Cl.Cl.Cl.O [Sample 289-MBA-29]
- KF result (Sample after drying at 40° C. for 24 hours) [2]: 0.89%

Structure (SMILES): COc1ccc(CN2CCN(CCOC(=O)c3cccnc3)CC2)c(OC)c1OC.Cl.Cl.Cl.O [Sample 289-MBA-30]
- KF result (Sample after drying at 40° C. for 24 hours) [2]: 3.51%

Structure (SMILES): COc1ccc(CN2CCN(CCOC(=O)c3cccnc3)CC2)c(OC)c1OC.Cl.Cl.Cl.O [Sample 289-MBA-31]
- KF result (Sample after drying at 40° C. for 24 hours) [2]: 3.30%

Structure (SMILES): COc1ccc(CN2CCNCC2)c(OC)c1OC [TMZ, trimetazidine]
- left ventricular developed pressure (LVDP), T20 Mean ([3]; Table 6, at 20 minutes): 55.86
- left ventricular developed pressure (LVDP), T170 Mean ([3]; Table 6, at 170 minutes): 48.91
- IS/LV, Mean [4]: 56%
- CF170/CF20 ([5]; group MEAN): 4.02E+01 ul/ml
- CF170/CF20 ([5]; individual heart): 2.42E+01 ul/ml and 5.87E+01 ul/ml and 3.57E+01 ul/ml and 3.37E+01 ul/ml and 5.21E+01 ul/ml and 2.73E+01 ul/ml and 2.60E+01 ul/ml and 6.39E+01 ul/ml
